ChEMBL document CHEMBL1201862, “PubChem BioAssay data set” (2004)
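Following 48 hours of exposure in 96-well plates, responses at five concentrations were used to interpolate endpoints linearly. At the GI50, growth is halved.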 Calls of active or inactive are those of the source. Cut-off read from the data, not from the text of the source: active = GI50 up to about 1.1 µM and inactive = higher.

Columns and labels:
Assay in all cases: NCI anticancer screen, dose series, 48 h
[1] = test system: COLO 205
[2] = test system: KM12
[3] = test system: A549
[4] = test system: CAKI-1
[5] = test system: HCC 2998
[6] = test system: UO-31
[7] = test system: U-251
[8] = test system: OVCAR-5
[9] = test system: SF-268
[10] = test system: UACC-62
[11] = test system: OVCAR-4
[12] = test system: CCRF-CEM
[13] = test system: SF-539
[14] = test system: DMS-114
[15] = test system: SNB-75
[16] = test system: Malme-3M
[17] = test system: HCT-15
[18] = test system: M19-MEL
[19] = test system: HL-60
[20] = test system: HOP-62
[21] = test system: SNB-19
[22] = test system: HT-29
[23] = test system: RXF 393
[24] = test system: K562
[25] = test system: NCI-H460
[26] = test system: SNB-78
[27] = test system: SN12C
[28] = test system: SK-MEL-5
[29] = test system: SF-295
[30] = test system: SK-OV-3
[31] = test system: NCI-H522
[32] = test system: EKVX
[33] = test system: OVCAR-8
[34] = test system: RXF 631
[35] = test system: LOX IMVI
[36] = test system: NCI-H23
[37] = test system: SW-620
[38] = test system: NCI-H226
[39] = test system: UACC-257
[40] = test system: KM-20L2
[41] = test system: DMS-273
[42] = test system: RPMI-8226
[43] = test system: DLD-1
[44] = test system: TK-10
[45] = test system: HOP-92
[46] = test system: HCT-116
[47] = test system: 786-0
[48] = test system: ACHN
[49] = test system: OVCAR-3
[50] = test system: IGROV-1
[51] = test system: SK-MEL-2
[52] = test system: M14
[53] = test system: LXFL 529
[54] = test system: XF498
[55] = test system: A498
[56] = test system: MOLT-4
[57] = test system: HOP-18
[58] = test system: SK-MEL-28

O=C(Cc1nc2ccccc2o1)C(=O)Nc1ccccc1C(F)(F)F
GI50 [1]: > 100 µM (inactive) | GI50 [2]: > 100 µM (inactive) | GI50 [3]: > 100 µM (inactive) | GI50 [4]: > 100 µM (inactive) | GI50 [5]: > 100 µM (inactive) | GI50 [6]: > 100 µM (inactive) | GI50 [7]: > 100 µM (inactive) | GI50 [8]: > 100 µM (inactive) | GI50 [9]: > 100 µM (inactive) | GI50 [10]: > 100 µM (inactive) | GI50 [11]: > 100 µM (inactive) | GI50 [12]: > 100 µM (inactive) | GI50 [13]: > 100 µM (inactive) | GI50 [14]: > 100 µM (inactive) | GI50 [15]: 63.1 µM (inactive) | GI50 [16]: > 100 µM (inactive) | GI50 [17]: > 100 µM | GI50 [18]: > 100 µM (inactive) | GI50 [19]: > 100 µM (inactive) | GI50 [20]: > 100 µM (inactive) | GI50 [21]: > 100 µM (inactive) | GI50 [22]: > 100 µM (inactive) | GI50 [23]: > 100 µM (inactive) | GI50 [24]: > 100 µM (inactive) | GI50 [25]: > 100 µM (inactive) | GI50 [26]: > 100 µM (inactive) | GI50 [27]: > 100 µM (inactive) | GI50 [28]: > 100 µM (inactive) | GI50 [29]: > 100 µM (inactive) | GI50 [30]: > 100 µM (inactive) | GI50 [31]: > 100 µM (inactive) | GI50 [32]: > 100 µM (inactive) | GI50 [33]: > 100 µM (inactive) | GI50 [34]: > 100 µM (inactive) | GI50 [35]: > 100 µM (inactive) | GI50 [36]: > 100 µM (inactive) | GI50 [37]: > 100 µM (inactive) | GI50 [38]: > 100 µM (inactive) | GI50 [39]: > 100 µM (inactive) | GI50 [40]: > 100 µM (inactive) | GI50 [41]: > 100 µM (inactive) | GI50 [42]: > 100 µM (inactive) | GI50 [43]: > 100 µM (inactive) | GI50 [44]: > 100 µM (inactive) | GI50 [45]: > 100 µM (inactive) | GI50 [46]: > 100 µM (inactive) | GI50 [47]: > 100 µM (inactive) | GI50 [48]: > 100 µM (inactive) | GI50 [49]: > 100 µM (inactive) | GI50 [50]: > 100 µM (inactive) | GI50 [51]: > 100 µM (inactive) | GI50 [52]: > 100 µM (inactive) | GI50 [53]: > 100 µM (inactive) | GI50 [54]: > 100 µM (inactive) | GI50 [55]: > 100 µM (inactive)

CC(=O)CC(=O)CCCC(=O)Nc1ccc(Cl)cc1C
GI50 [1]: > 100 µM (inactive) | GI50 [2]: > 100 µM (inactive) | GI50 [3]: > 100 µM (inactive) | GI50 [4]: > 100 µM (inactive) | GI50 [5]: > 100 µM (inactive) | GI50 [6]: > 100 µM (inactive) | GI50 [7]: > 100 µM (inactive) | GI50 [8]: > 100 µM (inactive) | GI50 [9]: > 100 µM (inactive) | GI50 [10]: > 100 µM (inactive) | GI50 [11]: > 100 µM (inactive) | GI50 [12]: > 100 µM (inactive) | GI50 [13]: > 100 µM (inactive) | GI50 [14]: > 100 µM (inactive) | GI50 [16]: > 100 µM (inactive) | GI50 [17]: > 100 µM | GI50 [18]: > 100 µM (inactive) | GI50 [19]: > 100 µM (inactive) | GI50 [56]: > 100 µM (inactive) | GI50 [21]: > 100 µM (inactive) | GI50 [22]: > 100 µM (inactive) | GI50 [24]: > 100 µM (inactive) | GI50 [25]: > 100 µM (inactive) | GI50 [26]: > 100 µM (inactive) | GI50 [27]: > 100 µM (inactive) | GI50 [28]: > 100 µM (inactive) | GI50 [29]: > 100 µM (inactive) | GI50 [30]: > 100 µM (inactive) | GI50 [31]: > 100 µM (inactive) | GI50 [32]: > 100 µM (inactive) | GI50 [33]: > 100 µM (inactive) | GI50 [34]: > 100 µM (inactive) | GI50 [35]: > 100 µM (inactive) | GI50 [36]: > 100 µM (inactive) | GI50 [37]: > 100 µM (inactive) | GI50 [38]: > 100 µM (inactive) | GI50 [39]: > 100 µM (inactive) | GI50 [40]: > 100 µM (inactive) | GI50 [41]: > 100 µM (inactive) | GI50 [42]: > 100 µM (inactive) | GI50 [43]: > 100 µM (inactive) | GI50 [44]: > 100 µM (inactive) | GI50 [45]: > 100 µM (inactive) | GI50 [46]: > 100 µM (inactive) | GI50 [47]: > 100 µM (inactive) | GI50 [48]: > 100 µM (inactive) | GI50 [49]: > 100 µM (inactive) | GI50 [50]: > 100 µM (inactive) | GI50 [51]: > 100 µM (inactive) | GI50 [52]: > 100 µM (inactive) | GI50 [57]: > 100 µM (inactive) | GI50 [53]: > 100 µM (inactive) | GI50 [55]: > 100 µM (inactive)

Cc1cccc(C(C)(C)C)c1NC(=O)CC1Sc2ccccc2NC1=O (stereo not given)
GI50 [1]: 24 µM (inactive) | GI50 [2]: 95.1 µM (inactive) | GI50 [3]: > 100 µM (inactive) | GI50 [4]: 87.3 µM (inactive) | GI50 [5]: > 100 µM (inactive) | GI50 [6]: 60.5 µM (inactive) | GI50 [7]: 25.6 µM (inactive) | GI50 [8]: > 100 µM (inactive) | GI50 [9]: 87.9 µM (inactive) | GI50 [10]: 68.7 µM (inactive) | GI50 [11]: > 100 µM (inactive) | GI50 [12]: 55.7 µM (inactive) | GI50 [13]: > 100 µM (inactive) | GI50 [14]: 24.8 µM (inactive) | GI50 [15]: > 100 µM (inactive) | GI50 [16]: > 100 µM (inactive) | GI50 [18]: 66.8 µM (inactive) | GI50 [19]: 46.1 µM (inactive) | GI50 [20]: > 100 µM (inactive) | GI50 [56]: 43.3 µM (inactive) | GI50 [21]: > 100 µM (inactive) | GI50 [22]: 43 µM (inactive) | GI50 [24]: 33 µM (inactive) | GI50 [25]: 34 µM (inactive) | GI50 [27]: > 100 µM (inactive) | GI50 [28]: > 100 µM (inactive) | GI50 [58]: > 100 µM (inactive) | GI50 [29]: > 100 µM (inactive) | GI50 [30]: > 100 µM (inactive) | GI50 [31]: > 100 µM (inactive) | GI50 [32]: > 100 µM (inactive) | GI50 [33]: 94.2 µM (inactive) | GI50 [34]: 36.7 µM (inactive) | GI50 [36]: 46.6 µM (inactive) | GI50 [37]: 17.3 µM (inactive) | GI50 [38]: 94.2 µM (inactive) | GI50 [39]: 36.2 µM (inactive) | GI50 [40]: > 100 µM (inactive) | GI50 [41]: 32.9 µM (inactive) | GI50 [42]: 19 µM (inactive) | GI50 [43]: 57.4 µM (inactive) | GI50 [44]: 41.7 µM (inactive) | GI50 [45]: 3.8 µM (inactive) | GI50 [46]: 22.4 µM (inactive) | GI50 [47]: 46 µM (inactive) | GI50 [48]: 57.5 µM (inactive) | GI50 [49]: 55.7 µM (inactive) | GI50 [50]: > 100 µM (inactive) | GI50 [52]: > 100 µM (inactive) | GI50 [57]: 57.9 µM (inactive) | GI50 [53]: 52.6 µM (inactive) | GI50 [55]: > 100 µM (inactive)
